Test results as given in ChEMBL document CHEMBL1201862, “PubChem BioAssay data set” (2004).
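Dose response: 5 concentrations. Exposure: 48 h. Format: 96-well plates. Endpoint: linear interpolation; highest concentration if not reached. The concentration for 50% growth inhibition is given as GI50.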 Calls of active or inactive are those of the source. Cut-off read from the data, not from the text of the source: active = GI50 up to about 1.1 µM and inactive = higher.

Columns and labels:
Experiment in all cases: NCI tumour cell line growth inhibition, 48 h
[1] = test system: KM12
[2] = test system: SF-295
[3] = test system: SK-MEL-28
[4] = test system: HOP-62
[5] = test system: UACC-257
[6] = test system: U-251
[7] = test system: RXF 393
[8] = test system: SF-268
[9] = test system: LXFL 529
[10] = test system: ACHN
[11] = test system: MOLT-4
[12] = test system: OVCAR-3
[13] = test system: NCI-H23
[14] = test system: HCT-116
[15] = test system: NCI-H226
[16] = test system: HL-60
[17] = test system: DMS-114

Measured: GI50

CC1=C(O)C(=O)C2C(=O)C1C(C)C2c1ccc(C)cc1 (centres undefined)
inactive: [1] > 100 µM | [2] > 100 µM | [3] > 100 µM | [4] > 100 µM | [5] > 100 µM | [6] > 100 µM | [7] > 100 µM | [8] > 100 µM | [9] > 100 µM | [10] > 100 µM | [11] > 100 µM | [12] > 100 µM | [13] > 100 µM

COc1ccc2c(c1)[n+]([O-])c(-c1nc3ccccc3s1)c(N)[n+]2[O-]
inactive: [1] > 100 µM | [14] 54.3 µM | [2] > 100 µM | [3] 55.6 µM | [15] > 100 µM | [4] > 100 µM | [16] 39.4 µM | [5] 63.5 µM | [6] 78 µM | [9] 58.1 µM | [10] 93.1 µM | [11] 43.8 µM | [12] 78.7 µM | [13] 64.9 µM

O=C(CSc1nc(=O)c(-c2ccccc2NC(=O)C(F)(F)F)n[nH]1)NC(=O)Nc1ccccc1
inactive: [1] > 100 µM | [14] > 100 µM | [2] > 100 µM | [3] > 100 µM | [15] 67.8 µM | [4] > 100 µM | [6] > 100 µM | [7] > 100 µM | [8] 56.6 µM | [9] 79.6 µM | [11] > 100 µM | [12] > 100 µM | [13] > 100 µM

O=S(=O)(O)c1cc(/N=[N+](\[O-])c2ccc(/N=N/c3ccccc3)cc2S(=O)(=O)O)ccc1/C=C/c1ccc(/N=[N+](\[O-])c2ccc(/N=N/c3ccccc3)cc2S(=O)(=O)O)cc1S(=O)(=O)O
inactive: [1] > 100 µM | [14] > 100 µM | [2] > 58.3 µM | [3] > 100 µM | [15] > 32.6 µM | [4] > 100 µM | [16] > 100 µM | [5] > 100 µM | [6] > 100 µM | [7] > 100 µM | [8] > 100 µM | [11] > 100 µM | [12] > 100 µM | [13] > 100 µM | [17] > 100 µM

Cc1ccccc1N(CC(=O)O)S(=O)(=O)c1ccccc1
inactive: [1] > 100 µM | [2] > 100 µM | [3] > 100 µM | [15] > 100 µM | [16] > 100 µM | [5] > 100 µM | [6] > 100 µM | [7] > 100 µM | [8] > 100 µM | [9] > 100 µM | [10] > 100 µM | [11] > 100 µM | [12] > 100 µM | [13] > 100 µM
